Data on 28 compounds can be found in US11673853B2, “Small molecule AMPK activators” (University of Pittsburgh—Of the Commonwealth System of …, priority 2016, dated 2023).

A word on the IC50: it is the concentration needed to halve the response being measured. A lower IC50 goes with inhibition by little substance.

The subject of experiment [1] is phospho-AMPK. Description: phospho-AMPK / p-ACC immunoblotting in Beas2B cells (in vitro studies). The class given is cell-based, Human. On the procedure:
FIG. 3. (A) Beas2b cells were cultured in DMEM 2% media with glucose for 24 h before switching to glucose-free media. Cells were then exposed to either DMSO or Compound 1 (2 μM) in a time course before being collected for immunoblotting. (B) Beas2B cells were exposed to Compound 1 for 18 h at various doses before being collected for immunoblotting. (C) Beas2b cells were cultured in DMEM 2% media with glucose for 24 h before switching to glucose-free media. Cells were then exposed to AICAR at various doses with or without Compound 1 co-treatment. After 18 h, cells were collected before being assayed by immunoblotting.
FIG. 4. (A) Beas2b cells were cultured in DMEM 2% media with glucose for 24 h before switching to glucose-free media. Cells were then exposed to Compound 12 in a dose dependent manner for 18 h before being collected for immunoblotting. (B) Beas2b cells were cultured in DMEM 2% media with glucose for 24 h before Compound 12 treatment in a dose dependent manner. After 18 h, cells were then collected for immunoblotting. (C) Beas2b cells were cultured in DMEM 2% media with glucose for 24 h before switching to glucose-free media. Cells were then exposed to Compound 12 for 18 h before being collected for mRNA analysis. (D) 50K PBMC cells were cultured in 96 well plates before being exposed to Compound 12 for 4 h. Cells were then treated with LPS (10 ng/ml) for additional 2 h. Media were then collected and IL-1b concentration was determined by ELISA.
FIG. 9. (A) Beas2b cells were cultured in DMEM 2% media with glucose for 24 h before switching to glucose-free media. Cells were then exposed to Compound 23 or metformin in a dose dependent manner for 18 h before being collected for immunoblotting. (B) Beas2b cells were cultured in DMEM 2% media with glucose for 24 h before switching to glucose-free media and treated with Compound 12 or Compound 23 in a dose dependent manner. After 6 h, cells were then collected for immunoblotting. (C) Beas2b cells were cultured in DMEM 2% media with glucose for 24 h before switching to glucose-free media and treated with Compound 12 or Compound 23 in a dose dependent manner. After 18 h, cells were then collected for immunoblotting. (D) Beas2b cells were transfected with AMPK phospho mimic T172D or phospho dead T172A mutant for 24 h. Cells were then switched to glucose-free media and exposed to Compound 23 in a dose or time dependent manner before being collected for immunoblotting. (E) Beas2b cells were transfected with control siRNA or Fbxo48 siRNA for 48 h before switching to glucose-free media. Cells were then exposed to Compound 23 in a dose dependent manner before being collected for immunoblotting. (F) Compound 23 chemical structure.
Compound 1 was studied in in vitro assays using Beas2B cells. […]
Compound 23 was tested in in vitro studies using Beas2B cells and compared with metformin.
Background: In western blotting, separated proteins are transferred to a membrane and probed.

Experiment [2] has as its system Diet-induced obese mice. Description: Diet-induced obese mice study, 14 days dosing. The class given is in vivo. Conditions: once daily for 14 days; BC1618 8 or 40 mg/kg/d. On the procedure:
FIG. 12. Diet-induced obese mice were fed a high-fat diet for 19 weeks and then injected with vehicle or drug once daily for 14 days. Daily body weights (in grams) of the mice are shown.
Diet-induced obese mice arrived from Jackson Labs and recovered two weeks in satellite housing before study. Mice were 25 weeks old and fed a high-fat diet for 19 weeks at the time of study. Body weight, fat and lean mass were measured and mice were grouped in order to match body weights at ˜46.5 g average per group prior to study. Following the acute dosing trial, mice were injected with vehicle or drug 1× daily between noon and 2 pm for 14 days (BC1618-L (low dose)=8 mg/kg/d, BC1618-H (high dose)=40 mg/kg/d). Body weight was recorded daily (FIGS. 12-15). FIG. 12 and FIG. 13 show body weight in grams and FIG. 14 and FIG. 15 show body weight as a percentage of body weight on day 0 (DO).
FIGS. 16-19 show the change (A) in body weight (BW) from day 0 to day 14 expressed as change in grams (FIG. 16 and FIG. 17) or as percent change from day 0 (FIG. 18 and FIG. 19).
Body composition was measured at DO in the body weight matched animals and again at day 14 (D14). Data in FIGS. 20-23 represent the change in fat mass from DO to D14 expressed as grams (FIG. 20 and FIG. 21) or as percent change (FIG. 22 and FIG. 23).
Data in FIGS. 24-27 represent the change in lean mass from DO to D14 expressed as grams (FIG. 24 and FIG. 25) and as percent change (FIG. 26 and FIG. 27). Overall there appears to be a modest effect of vehicle and drug to reduce lean mass over 14 days, but no differences between groups. Changes in BW over 14 days therefore reflect changes in fat mass and not lean mass.

For experiment [3], the system named is High-fat diet fed C57BL6J mice. Description: Acute oral dosing study in high-fat diet fed mice. In kind it is in vivo.
Experiment [4] concerns pAMPK. Put plainly: pAMPK immunoblotting in Beas2B cells (Table 1). The class given is cell-based. To be noted: Homo sapiens, BEAS-2B, DMEM media without glucose, compounds 18 h. As for the experimental part: Additional compounds in Table 1 were or can be prepared according to the above-described Examples. Human bronchial epithelial cells (Beas2B) were seeded in 6-well plates for 18 h. Cells were then exposed to DMEM media without glucose and compounds at various concentrations for an additional 18 h before being collected for immunoblotting.

In brackets after ≈: the same amount, converted by molar mass. Some results are limits rather than exact numbers.

For the compound `NC(=O)c1ncn([C@@H]2O[C@H](CO)[C@@H](O)[C@H]2O)c1N` [AICAR, reference compound], the “concentration at which phospho-AMPK levels increased” value in experiment [1] (Beas2b, glucose-free media, 18 h, dose dependent) was about 0.05 mM. In experiment [2], the “body weight loss (daily body weight)” value was “effect of AICAR and BC1618 on body weight loss”; the “change in body weight from day 0 to day 14” value is recorded as “an effect due to AICAR or BC1618”; the “change in fat mass from D0 to D14” value is given as “apparent additive effect”. For the same compound, in experiment [3] (1 g/kg body weight glucose, data not shown), the “glucose tolerance (intraperitoneal glucose tolerance test)” value is reported as “no difference in glucose tolerance”. Also, in experiment [3] (two oral doses (AICAR 200 mg/kg, BC1618 20 mg/kg)), the “body weight at the time of study” value was “no differences in body weight”. In addition, the “reduction of fasting plasma glucose compared to vehicle” value in experiment [3] (two oral doses (AICAR 200 mg/kg, BC1618 20 mg/kg), 2 h after second dose, P=0.08) is listed as 10%.

In experiment [4], `OC(COc1ccc(OCC(O)CN(Cc2ccccc2)Cc2ccccc2)cc1)CN(Cc1ccccc1)Cc1ccccc1` (centres unmarked) [Compound 1] displayed an IC50 of 1 to 10 µg/mL (≈ 1.62 to 16.2 µM). In experiment [1] (Beas2B cells, 18 h, various doses), the “concentration leading to a drastic increase in phospho-AMPK levels” value was 2 µM. Further, the “phospho-AMPK levels compared to vehicle control” value in experiment [1] (Beas2b, glucose-free media, 2 μM, time course, within 2 h) is on record as “drastically increased”. Also, in experiment [1] (Compound 1 alone at 4 μM, AICAR at 0.25 mM), the “phospho-AMPK and downstream p-ACC levels versus AICAR” value is on record as “well exceeding AICAR treatment at 0.25 mM”. Moreover, in experiment [1] (Compound 1 at 4 μM with AICAR at various doses, 18 h), the “effect of co-treatment with AICAR on phospho-AMPK” value was “completely saturated AICAR effects”.

`COCCN(Cc1ccc(OCC(O)CN(C)Cc2ccccc2)cc1)C(C)C` (centres unmarked) [Compound 2] had an IC50 in experiment [4] of over 10 µg/mL.

On to `CN(Cc1ccccc1)CC(O)COc1ccc(CNC2CC2)cc1` (centres unmarked) [Compound 3], for which the IC50 in experiment [4] was over 10 µg/mL.

In experiment [4], `Cc1ccccc1CNCc1ccc(OCC(O)CN(C)Cc2ccccc2)cc1` (centres unmarked) [Compound 4] gave an IC50 of over 10 µg/mL.

`Cc1ccc(OCC(O)CN(Cc2ccccc2)Cc2ccccc2)cc1` (centres unmarked) [Compound 5] yielded an IC50 in experiment [4] of 1 to 10 µg/mL (≈ 2.77 to 27.7 µM).

In experiment [4], `COc1ccc(OCC(O)CN(Cc2ccccc2)Cc2ccccc2)cc1` (centres unmarked) [Compound 6] displayed an IC50 of 1 to 10 µg/mL (≈ 2.65 to 26.5 µM).

As to `OC(COc1ccc2ccccc2c1)CN(Cc1ccccc1)Cc1ccccc1` (centres unmarked) [Compound 7], in experiment [4], the IC50 fell in the range of 1 to 10 µg/mL (≈ 2.52 to 25.2 µM).

As to `OC(CNCc1ccccc1)COc1ccc(OCC(O)CNCc2ccccc2)cc1` (centres unmarked) [Compound 8], the IC50 in experiment [4] is over 10 µg/mL.

In turn, `Cc1ccccc1OCC(O)CN(Cc1ccccc1)Cc1ccccc1` (centres unmarked) [Compound 9] had an IC50 in experiment [4] of 1 to 10 µg/mL (≈ 2.77 to 27.7 µM).

Take `CC1CN(Cc2ccc(OCC(O)CN(C)Cc3ccccc3)cc2)C1` (centres unmarked) [Compound 10]: the IC50 in experiment [4] was over 10 µg/mL.

Take `OC(CNC(c1ccccc1)c1ccccc1)COc1ccc(F)cc1` (centres unmarked) [Compound 11]: in experiment [4], the IC50 lay in the range of 1 to 10 µg/mL (≈ 2.85 to 28.5 µM).

On to `OC(CNC(c1ccccc1)c1ccccc1)COc1ccccc1` (centres unmarked) [Compound 13], for which the IC50 in experiment [4] fell in the range of 1 to 10 µg/mL (≈ 3 to 30 µM).

Take `OC(CNCC(c1ccccc1)c1ccccc1)COc1ccccc1` (centres unmarked) [Compound 14]: the IC50 in experiment [4] fell in the range of 1 to 10 µg/mL (≈ 2.88 to 28.8 µM).

Take `OC(CNC1c2ccccc2Oc2ccccc21)COc1ccccc1` (centres unmarked) [Compound 15]: in experiment [4], the IC50 was over 10 µg/mL.

As for `OC(COc1ccccc1)CN(Cc1ccccc1)Cc1ccccc1` (centres unmarked) [Compound 16], the IC50 in experiment [4] fell in the range of 1 to 10 µg/mL (≈ 2.88 to 28.8 µM).

For `COc1ccc(OCC(O)CNCC(c2ccccc2)c2ccccc2)cc1` (centres unmarked) [Compound 17], the IC50 in experiment [4] was in the range of 1 to 10 µg/mL (≈ 2.65 to 26.5 µM).

`OC(CNC(c1ccccc1)c1ccccc1)COc1ccc(C2CCCCC2)cc1` (centres unmarked) [Compound 18]: the IC50 in experiment [4] was 1 to 10 µg/mL (≈ 2.41 to 24.1 µM).

In turn, `OC(COc1ccc(C2CCCCC2)cc1)CN(Cc1ccccc1)Cc1ccccc1` (centres unmarked) [Compound 19] registered a 50% inhibitory concentration (IC50) in experiment [4] of 1 to 10 µg/mL (≈ 2.33 to 23.3 µM).

`OC(CNCC(c1ccccc1)c1ccccc1)COc1ccc(C2CCCCC2)cc1` (centres unmarked) [Compound 20] gave an IC50 in experiment [4] of over 10 µg/mL.

As to `O=C(c1ccccc1)c1ccc(OCC(O)CN(Cc2ccccc2)Cc2ccccc2)cc1` (centres unmarked) [Compound 21], in experiment [4], the IC50 was over 10 µg/mL.

On to `OC(COc1ccc(-c2ccccn2)cc1)CN(Cc1ccccc1)Cc1ccccc1` (centres unmarked) [Compound 22], for which, in experiment [4], the IC50 was over 10 µg/mL.

In the case of `OC(CN(Cc1ccccc1)Cc1ccccc1)c1ccc2ccccc2c1` (centres unmarked) [Compound 24], the IC50 in experiment [4] fell in the range of 1 to 10 µg/mL (≈ 2.72 to 27.2 µM).

In experiment [4], `OC(CCc1ccccc1)CN(Cc1ccccc1)Cc1ccccc1` (centres unmarked) [Compound 25] registered an IC50 of over 10 µg/mL.

Compound `OC(COc1ccc(C(F)(F)F)cc1)CN1CCc2ccccc2C1` (centres unmarked) [Compound 26] displayed an IC50 in experiment [4] of over 10 µg/mL.

`OC(CNc1ccc(C(F)(F)F)cc1)CNc1ccc(C(F)(F)F)cc1` [Compound 27] had an IC50 in experiment [4] of over 10 µg/mL.

As to `OC(CNc1ccc(F)cc1)COc1ccc(F)cc1` (centres unmarked) [Compound 28], in experiment [4], the IC50 is over 10 µg/mL.

For the compound `CN(C)C(=N)N=C(N)N` [metformin, reference compound], the “concentration range increasing pAMPK phosphorylation and downstream substrate ACC phosphorylation” value in experiment [1] (Beas2b, glucose-free media, 18 h) is on record as “millimolar”.
